For 25 compounds, IC50 results are on record in US12281079B2, “Quinoline derivatives, processes for their preparation and uses thereof for the treatment of cancer” (Lead Discovery Center GmbH, priority 2019, dated 2025).

pIC50: −log10 of the molar value.

Chain of mitochondrial RNA polymerase (POLRMT) (Q8BKF1 42-1207): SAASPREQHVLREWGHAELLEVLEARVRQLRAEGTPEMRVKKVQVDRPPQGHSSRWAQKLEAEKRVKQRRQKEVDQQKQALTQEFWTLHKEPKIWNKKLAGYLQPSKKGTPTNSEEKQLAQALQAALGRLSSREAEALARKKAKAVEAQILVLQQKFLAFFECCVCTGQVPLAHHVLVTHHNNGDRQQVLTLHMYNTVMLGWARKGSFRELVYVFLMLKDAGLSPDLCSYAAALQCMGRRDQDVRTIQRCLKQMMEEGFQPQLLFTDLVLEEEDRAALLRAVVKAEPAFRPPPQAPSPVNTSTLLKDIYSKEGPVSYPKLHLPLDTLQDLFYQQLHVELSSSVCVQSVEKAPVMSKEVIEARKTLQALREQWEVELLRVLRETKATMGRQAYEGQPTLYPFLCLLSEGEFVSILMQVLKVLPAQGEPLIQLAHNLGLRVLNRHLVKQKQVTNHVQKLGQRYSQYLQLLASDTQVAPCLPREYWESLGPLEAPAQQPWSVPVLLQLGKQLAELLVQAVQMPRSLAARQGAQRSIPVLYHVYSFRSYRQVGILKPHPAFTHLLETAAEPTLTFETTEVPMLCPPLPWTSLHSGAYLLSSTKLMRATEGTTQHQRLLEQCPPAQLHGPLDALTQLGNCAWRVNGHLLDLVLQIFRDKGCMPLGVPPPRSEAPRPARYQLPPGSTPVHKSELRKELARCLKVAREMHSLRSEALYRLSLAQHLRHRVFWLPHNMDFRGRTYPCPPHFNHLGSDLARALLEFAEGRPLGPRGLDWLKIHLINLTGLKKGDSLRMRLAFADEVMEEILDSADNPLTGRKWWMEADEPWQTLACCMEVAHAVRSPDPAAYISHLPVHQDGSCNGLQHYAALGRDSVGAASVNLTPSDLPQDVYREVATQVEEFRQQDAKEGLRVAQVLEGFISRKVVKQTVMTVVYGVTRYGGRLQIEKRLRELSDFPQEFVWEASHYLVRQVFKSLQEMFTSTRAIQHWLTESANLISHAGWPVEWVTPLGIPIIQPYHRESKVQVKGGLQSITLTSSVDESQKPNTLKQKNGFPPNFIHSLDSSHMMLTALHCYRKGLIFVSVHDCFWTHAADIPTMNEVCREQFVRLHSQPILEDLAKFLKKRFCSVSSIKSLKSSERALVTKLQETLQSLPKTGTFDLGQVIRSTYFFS

The assay addresses mitochondrial RNA polymerase (POLRMT) (Mus musculus, UniProt Q8BKF1). In words: Homogeneous TR-FRET assay for mitochondrial transcription activity. Type of assay: biochemical. Particulars: homogeneous TR-FRET assay according to Example 4. From the text: The TR-FRET assay was basically conducted as described in WO2016/193231A1, especially as described in example 1 (hereby incorporated by reference). With respect to the back ground of the mitochondrial transcription it is referred to Falkenberg et al. (2002) and Posse et al. (Posse et al., 2015). The method monitors the activity of mitochondrial RNA-polymerase via detection of the formation of its product, a 407 bp long RNA sequence. Detection of the product is facilitated by hybridization of two DNA-oligonucleotide probes to specific and adjacent sequences within the RNA product sequence. Upon annealing of the probes, two fluorophores that are coupled directly to an acceptor nucleotide probe (ATT0647, 5′) or introduced via a coupled streptavidin interacting with a biotinylated donor nucleotide probe on the other side (Europium cryptate, 3′) are brought into sufficient proximity to serve as a fluorescence-donor-acceptor pair as generally described in Walters and Namchuk (2003). Thus, a FRET signal at 665 nm is generated upon excitation at 340 nm.
Briefly, the protocol described here was applied for screening and activity determination in a low-volume 384-well microtiter plate with non-binding surface. For high-throughput application in the 1536-well microtiter plate format, volumes of the reagent mixes were adjusted, maintaining the volumetric ratio. Proteins POLRMT (NM_172551.3), TFAM (NM_009360.4) and TFB2M (NM_008249.4) were diluted from their stocks to working concentrations of 150 nM, 1.8 μM and 330 nM respectively, in a dilution buffer containing 100 mM Tris-HCl pH 8.0, 200 mM NaCl, 10% (v/v) glycerole, 2 mM glutathione (GSH), 0.5 mM EDTA and 0.1 mg/mL BSA. Protein dilutions and template DNA, comprising a pUC18 plasmid encoding the mitochondrial light strand promoter, restriction linearized proximal to the promoter 3′-end (pUC-LSP), were mixed at the twofold final assay-concentration in a reaction buffer, containing 10 mM Tris-HCl pH 7.5, 10 mM MgCl2, 40 mM NaCl, 2 mM GSH, 0.01% (w/v) Tween-20 and 0.1 mg/mL BSA.
5 μL of this mix were dispensed, depending on the chosen microtiter plate format, using multi-channel pipettes or a Multidrop® dispenser (Thermo Fisher Scientific, Waltham Mass.) into the wells of a microtiter plate and incubated at room temperature (rt) for 10 min. Chemical compounds under scrutiny in the assay were applied using contact-free acoustic droplet-dispensing (Echo520® Labcyte Inc., Sunnyvale Calif.) from 10 mM compound stocks in 100% DMSO, to a final concentration of 10 μM or in serial dilution series of the required concentration range. Equal amounts of DMSO without any compound were added to positive control samples, followed by an incubation step at rt for 10 min.
The enzymatic reaction was started by the addition of 5 μL of a mix of dNTPs in reaction buffer to a final concentration of 500 μM each. No nucleotide mix was added to negative control samples. The content of the wells was mixed using a VarioTeleshaker™ (Thermo Fisher Scientific, Waltham Mass.) at 1500 rpm for 45 sec after which the microtiter plate was centrifuged at 500×g for 1 min. The samples were incubated for 2 h at rt with humidity control to avoid evaporation. The detection reagents were prepared in a buffer that was composed, such that the enzymatic reaction was terminated due to chelating of Mg-ions and increased ionic strength, containing 50 mM Tris-HCl pH 7.5, 700 mM NaCl, 20 mM EDTA, and 0.01% (w/v) Tween-20. Importantly Eu-cryptate-coupled streptavidin had to be preincubated with a 100-fold molar excess of a random sequence oligonucleotide for 10 min at rt in the dark to block unspecific binding of single stranded RNA to the protein. Subsequently, the blocked streptavidin(-Eu) was mixed with the DNA-probes on ice and kept away from light until use. […]
In general terms: TR-FRET usually uses a lanthanide donor and a delayed reading to cut background.
For `CCOC(=O)C[C@@H]1CCCN(C(=O)[C@@H](C)Oc2ccc3c(-c4ccc(F)cc4Cl)ccnc3c2)C1` [Compound 89, ethyl 2-[(3S)-1-[(2R)-2-[[4-(2-chloro-4-fluoro-phenyl)-7-quinolyl]oxy]propanoyl]-3-piperidyl]acetate], the pIC50 (as a rule, −log10 of the IC50, conventionally taken in molar units) was 5.00 to 6.00.

Consider `C#Cc1ccccc1-c1ccnc2cc(O[C@H](C)C(=O)N3CCC[C@H](CC(=O)O)C3)ccc12` [Compound 144, 2-[(3R)-1-[(2R)-2-[[4-(2-ethynylphenyl)-7-quinolyl]oxy]propanoyl]-3-piperidyl]acetic acid], for which the pIC50 was 7.00 to 7.70.

With `C[C@H](Oc1ccc2c(-c3ccccc3Cl)ccnc2c1)C(=O)N1CCC[C@@H](C(=O)O)C1` [Compound 102, (3R)-1-[(2S)-2-[[4-(2-chlorophenyl)-7-quinolyl]oxy]propanoyl]piperidine-3-carboxylic acid], the pIC50 is 5.00 to 6.00.

For `C[C@@H](Oc1ccc2c(-c3ccccc3Cl)cc(F)nc2c1)C(=O)O` [Compound 90, (2R)-2-[[4-(2-chlorophenyl)-2-fluoro-7-quinolyl]oxy]propanoic acid], the pIC50 was 5.00 to 6.00.

Turning to `COC(=O)[C@@H]1CCCN(C(=O)[C@@H](C)Oc2ccc3c(-c4ccc(F)cc4Cl)ccnc3c2)C1` [Compound 71, methyl (3R)-1-[(2R)-2-[[4-(2-chloro-4-fluoro-phenyl)-7-quinolyl]oxy]propanoyl]piperidine-3-carboxylate], the negative-log IC50 (pIC50) is 6.00 to 7.00.

The compound `Cc1cc(-c2ccccc2C)c2ccc(O[C@H](C)C(=O)N3CCC[C@H](C(=O)OC(C)(C)C)C3)cc2n1` [Compound 111] gave a pIC50 of 5.00 to 6.00.

As for `CCOC(=O)C[C@H]1CCCN(C(=O)[C@@H](C)Oc2ccc3c(-c4c(C)cccc4C)ccnc3c2)C1` [Compound 6, ethyl 2-[(3R)-1-[(2R)-2-[[4-(2,6-dimethylphenyl)-7-quinolyl]oxy]propanoyl]-3-piperidyl]acetate], the pIC50 is over 7.70.

The compound `CCOC(=O)[C@H]1CCCN(C(=O)[C@@H](C)Oc2ccc3c(-c4ccc(F)cc4C)cc(Cl)nc3c2)C1` [Compound 94, ethyl (3S)-1-[(2R)-2-[[2-chloro-4-(4-fluoro-2-methyl-phenyl)-7-quinolyl]oxy]propanoyl]piperidine-3-carboxylate] gave a negative logarithm of the IC50 (pIC50) of 5.00 to 6.00.

Regarding `C[C@@H](Oc1ccc2c(-c3ccccc3C(F)(F)F)ccnc2c1)C(=O)N1CCC[C@H](CC(=O)O)C1` [Compound 136, 2-[(3R)-1-[(2R)-2-[[4-[2-(trifluoromethyl)phenyl]-7-quinolyl]oxy]propanoyl]-3-piperidyl]acetic acid], the pIC50 is 6.00 to 7.00.

`COc1ccccc1-c1ccnc2cc(O[C@H](C)C(=O)N3CCC[C@H](CC(=O)O)C3)ccc12` [Compound 135, 2-[(3R)-1-[(2R)-2-[[4-(2-methoxyphenyl)-7-quinolyl]oxy]propanoyl]-3-piperidyl]acetic acid]: the pIC50 was 5.00 to 6.00.

As to `Cc1cccc(C)c1-c1ccnc2cc(O[C@H](C)C(=O)N3CCC[C@@H](S(N)(=O)=O)C3)ccc12` [Compound 172, (3R)-1-[(2R)-2-[[4-(2,6-dimethylphenyl)-7-quinolyl]oxy]propanoyl]piperidine-3-sulfonamide], the pIC50 is over 7.70.

The compound `CCC(Oc1ccc2c(-c3ccccc3Cl)ccnc2c1)C(=O)N1CCC[C@H](CC(=O)O)C1` (mixture of isomers) [Compound 140, 2-[rac-(3R)-1-[2-[[4-(2-chlorophenyl)-7-quinolyl]oxy]butanoyl]-3-piperidyl]acetic acid] showed a pIC50 of 7.00 to 7.70.

For the compound `C[C@@H](Oc1ccc2c(-c3ccccc3N(C)C)ccnc2c1)C(=O)N1CCC[C@H](CC(=O)O)C1` [Compound 145, 2-[(3R)-1-[(2R)-2-[[4-[2-(dimethylamino)phenyl]-7-quinolyl]oxy]propanoyl]-3-piperidyl]acetic acid], the pIC50 is 6.00 to 7.00.

`CC(C)c1ccccc1-c1ccnc2cc(O[C@H](C)C(=O)N3CCC[C@H](CC(=O)O)C3)ccc12` [Compound 122, 2-[(3R)-1-[(2R)-2-[[4-(2-isopropylphenyl)-7-quinolyl]oxy]propanoyl]-3-piperidyl]acetic acid] had a negative logarithm of the IC50 (pIC50) of 5.00 to 6.00.

For the compound `CCOC(=O)C[C@H]1CCCN(C(=O)[C@@H](C)Oc2ccc3c(-c4ccccc4Cl)cc(Cl)nc3c2)C1` [Compound 92, ethyl 2-[(3R)-1-[(2R)-2-[[2-chloro-4-(2-chlorophenyl)-7-quinolyl]oxy]propanoyl]-3-piperidyl]acetate], the negative-log IC50 (pIC50) was 5.00 to 6.00.

Turning to `CC(C)(Oc1ccc2c(-c3ccccc3Cl)ccnc2c1)C(=O)N1CCC[C@H](CC(=O)O)C1` [Compound 139, 2-[(3R)-1-[2-[[4-(2-chlorophenyl)-7-quinolyl]oxy]-2-methyl-propanoyl]-3-piperidyl]acetic acid], the pIC50 was 5.00 to 6.00.

`CCC(=O)N1CCN(C(=O)[C@@H](C)Oc2ccc3c(-c4ccccc4Cl)cc(Cl)nc3c2)CC1` [Compound 72, (2R)-2-[[2-chloro-4-(2-chlorophenyl)-7-quinolyl]oxy]-1-(4-propanoylpiperazin-1-yl)propan-1-one] gave a pIC50 of 6.00 to 7.00.

The compound `CNC(=O)C[C@H]1CCCN(C(=O)[C@@H](C)Oc2ccc3c(-c4ccc(F)cc4Cl)cc(Cl)nc3c2)C1` [Compound 98, 2-((R)-1-((R)-2-((2-chlor-4-(2-chloro-4-fluorophenyl)quinolin-7-yl)oxy)propanoyl)piperidin-3-yl)-N-methylacetamide] showed a pIC50 of 5.00 to 6.00.

With `Cc1ccsc1-c1ccnc2cc(O[C@H](C)C(=O)N3CCC[C@H](CC(=O)O)C3)ccc12` [Compound 134, 2-[(3R)-1-[(2R)-2-[[4-(3-methyl-2-thienyl)-7-quinolyl]oxy]propanoyl]-3-piperidyl]acetic acid], the pIC50 is 5.00 to 6.00.

`C[C@@H](Oc1ccc2c(-c3ccc(F)cc3Cl)ccnc2c1)C(=O)O` [Compound 44, (R)-2-((4-(2-chloro-4-fluorophenyl)quinolin-7 yl)oxy)propanoic acid] showed a pIC50 of 6.00 to 7.00.

For `C[C@@H](Oc1ccc2c(-c3ccccc3Cl)cc(Cl)nc2c1)C(=O)N1CCC[C@H](C(=O)N(C)C)C1` [Compound 100, (3S)-1-[(2R)-2-[[2-chloro-4-(2-chlorophenyl)-7-quinolyl]oxy]propanoyl]-N,N-dimethyl-piperidine-3-carboxamide], the pIC50 is 5.00 to 6.00.

`C[C@@H](Oc1ccc2c(-c3cccc(F)c3Cl)ccnc2c1)C(=O)N1CCC[C@H](CC(=O)O)C1` [Compound 65, 2-[(3R)-1-[(2R)-2-[[4-(2-chloro-3-fluoro-phenyl)-7-quinolyl]oxy]propanoyl]-3-piperidyl]acetic acid] gave a pIC50 of 7.00 to 7.70.

Regarding `COC(=O)C[C@H]1CCN(C(=O)[C@@H](C)Oc2ccc3c(-c4ccc(F)cc4Cl)ccnc3c2)C1` [Compound 37, methyl 2-[(3R)-1-[(2R)-2-[[4-(2-chloro-4-fluoro-phenyl)-7-quinolyl]oxy]propanoyl]pyrrolidin-3-yl]acetate], the negative-log IC50 (pIC50) is 6.00 to 7.00.

In the case of `C[C@@H](Oc1ccc2c(-c3c(C(F)(F)F)cccc3C(F)(F)F)ccnc2c1)C(=O)N1CCC[C@H](CC(=O)O)C1` [Compound 151, 2-[(3R)-1-[(2R)-2-[[4-[2,6-bis(trifluoromethyl)phenyl]-7-quinolyl]oxy]propanoyl]-3-piperidyl]acetic acid], the negative-log IC50 (pIC50) was 5.00 to 6.00.

In turn, `CNC(=O)[C@H]1CCCN(C(=O)[C@@H](C)Oc2ccc3c(-c4ccccc4Cl)cc(Cl)nc3c2)C1` [Compound 96, (3S)-1-[(2R)-2-[[2-chloro-4-(2-chlorophenyl)-7-quinolyl]oxy]propanoyl]-N-methyl-piperidine-3-carboxamide] gave a pIC50 of 5.00 to 6.00.
